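1) Cells in 96-well plates. 2) Compound, 48 h, 5 concentrations. 3) Linear interpolation between surrounding doses. 4) Unreached endpoint = highest concentration. TGI: concentration producing complete growth inhibition.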
Assays:
Experiment in all cases: DTP human tumour cell line panel, 48 h
[1] = system: M19-MEL melanoma
[2] = system: 786-0 renal
[3] = system: SK-MEL-5 melanoma
[4] = system: SNB-75 CNS
[5] = system: KM20L2 colon
[6] = system: SF-539 CNS
[7] = system: TK-10 renal
[8] = system: HCC-2998 colon
[9] = system: OVCAR-5 ovarian
[10] = system: MOLT-4 leukemia
[11] = system: U251 CNS
[12] = system: OVCAR-8 ovarian
[13] = system: HT29 colon
[14] = system: UO-31 renal
[15] = system: HOP-92 NSCLC
[16] = system: SR leukemia
[17] = system: HCT-15 colon
[18] = system: LXFL 529 NSCLC
[19] = system: SK-MEL-28 melanoma
[20] = system: UACC-62 melanoma
[21] = system: DMS 114 small cell lung
[22] = system: LOX IMVI melanoma
[23] = system: A549 NSCLC
[24] = system: SNB-19 CNS
[25] = system: NCI-H226 lung
[26] = system: OVCAR-4 ovarian
[27] = system: MALME-3M melanoma
[28] = system: M14 melanoma
[29] = system: RPMI-8226 leukemia
[30] = system: K-562 leukemia
[31] = system: NCI-H23 lung
[32] = system: CAKI-1 renal
[33] = system: ACHN renal
[34] = system: HL-60(TB) leukemia
[35] = system: KM12 colon
[36] = system: SK-MEL-2 melanoma
[37] = system: OVCAR-3 ovarian
[38] = system: HOP-62 NSCLC
[39] = system: SN12C renal
[40] = system: A498 renal
[41] = system: SF-295 CNS
[42] = system: DLD-1 colon
[43] = system: IGROV1 ovarian
[44] = system: SW-620 colon
[45] = system: SK-OV-3 ovarian
[46] = system: NCI-H522 lung
[47] = system: SNB-78 CNS
[48] = system: RXF 393 renal
[49] = system: DMS 273 small cell lung
[50] = system: EKVX NSCLC
[51] = system: HOP-18 NSCLC
[52] = system: HCT-116 colon
[53] = system: UACC-257 melanoma
[54] = system: DU-145 prostate
[55] = system: CCRF-CEM leukemia
[56] = system: MDA-N
[57] = system: NCI-H460 lung
[58] = system: PC-3 prostate
[59] = system: NCI/ADR-RES ovarian
[60] = system: MDA-MB-435
[61] = system: COLO 205 colon
[62] = system: HS 578T breast
[63] = system: SF-268 CNS
[64] = system: MCF7 breast
[65] = system: MDA-MB-231 breast
[66] = system: BT-549 breast
[67] = system: T-47D breast

CN(C)CCNC(=O)c1cccc2nc3cc(Cl)ccc3nc12 showed a TGI [1] of 3.89 µM, a TGI [2] greater than 31 µM and a TGI [3] greater than 33.6 µM. The TGI [4] was 15.4 µM, the TGI [5] was 9.08 µM and the TGI [6] was 11.4 µM. The TGI [7] was 15 µM, the TGI [8] was 10.7 µM and the TGI [9] was 7.62 µM. For the same compound, the TGI [10] was 2.77 µM, the TGI [11] was 12.4 µM and the TGI [12] was greater than 21.3 µM. For the same compound, the TGI [13] was 6.22 µM, the TGI [14] was greater than 29.1 µM and the TGI [15] was greater than 23.8 µM. It also gave a TGI [16] greater than 100 µM, a TGI [17] of 11.5 µM and a TGI [18] greater than 22.3 µM. It also gave a TGI [19] of 8.27 µM, a TGI [20] of 9.67 µM and a TGI [21] of 6.69 µM. It also gave a TGI [22] of 2.86 µM, a TGI [23] greater than 26.7 µM and a TGI [24] of 16.9 µM. For the same compound, the TGI [25] was 5.14 µM, the TGI [26] was 8.54 µM and the TGI [27] was 4.8 µM. For the same compound, the TGI [28] was greater than 21.9 µM, the TGI [29] was 31.6 µM and the TGI [30] was 4.14 µM. The TGI [31] was 5.26 µM, the TGI [32] was greater than 23.5 µM and the TGI [33] was 4.22 µM. For the same compound, the TGI [34] was 13.9 µM, the TGI [35] was 15.2 µM and the TGI [36] was 7.57 µM. For the same compound, the TGI [37] was 6.15 µM, the TGI [38] was 5.61 µM and the TGI [39] was 10.7 µM. The TGI [40] was 4.65 µM, the TGI [41] was greater than 27.8 µM and the TGI [42] was 20.3 µM. The TGI [43] was greater than 50.6 µM, the TGI [44] was greater than 23.7 µM and the TGI [45] was greater than 40.3 µM. The TGI [46] was greater than 100 µM, the TGI [47] was 10.5 µM and the TGI [48] was 6.31 µM. For the same compound, the TGI [49] was greater than 100 µM, the TGI [50] was 18.1 µM and the TGI [51] was greater than 63.2 µM. The TGI [52] was 2.23 µM and the TGI [53] was 8.69 µM.

Work on O=C(c1c(F)c(F)c(F)c(F)c1F)N1CCN(C(=O)c2c(F)c(F)c(F)c(F)c2F)C1=S yielded a TGI [2] of 27.3 µM, a TGI [3] of 19.6 µM and a TGI [4] of 23 µM. For the same compound, the TGI [6] was 24 µM, the TGI [54] was 27.2 µM and the TGI [55] was greater than 100 µM. It also gave a TGI [7] of 27 µM, a TGI [8] of 22.7 µM and a TGI [9] of 29.4 µM. The TGI [56] was 6.54 µM, the TGI [57] was 25.6 µM and the TGI [58] was 21 µM. For the same compound, the TGI [10] was 11.4 µM, the TGI [11] was 22.2 µM and the TGI [59] was 32.1 µM. The TGI [12] was 12.9 µM, the TGI [13] was 12.9 µM and the TGI [14] was 10 µM. The TGI [15] was 12.9 µM, the TGI [16] was greater than 100 µM and the TGI [60] was 11.9 µM. It also gave a TGI [17] of 6.15 µM, a TGI [19] of 14.9 µM and a TGI [20] of 9.33 µM. The TGI [61] was 18.6 µM, the TGI [22] was 6.57 µM and the TGI [23] was 29.5 µM. The TGI [24] was 30.1 µM, the TGI [62] was 18.9 µM and the TGI [25] was 30.8 µM. For the same compound, the TGI [26] was 10.4 µM, the TGI [27] was 15.8 µM and the TGI [63] was 32.6 µM. For the same compound, the TGI [28] was 4.02 µM, the TGI [29] was greater than 100 µM and the TGI [30] was greater than 100 µM. The TGI [31] was 20.1 µM, the TGI [32] was 6.89 µM and the TGI [64] was 21.1 µM. It also gave a TGI [65] of 14.4 µM, a TGI [33] of 20.3 µM and a TGI [34] greater than 100 µM. For the same compound, the TGI [35] was 18.8 µM, the TGI [36] was 7.33 µM and the TGI [37] was 12 µM. The TGI [38] was 29.1 µM, the TGI [39] was 24.5 µM and the TGI [66] was 27.8 µM. It also gave a TGI [40] of 32 µM, a TGI [41] of 28.5 µM and a TGI [43] of 8.96 µM. The TGI [44] was 3.59 µM, the TGI [45] was 21.6 µM and the TGI [46] was 1.65 µM. For the same compound, the TGI [67] was 24.2 µM, the TGI [48] was 9.27 µM and the TGI [50] was 32.9 µM. For the same compound, the TGI [52] was 7.72 µM and the TGI [53] was 22 µM.

Work on CC(=O)OC[C@]1(C)CCCC2(C)C1CCC1C=C(C)[C@H]3CCC12C3 (some centres not stated) yielded a TGI [1] greater than 100 µM, a TGI [2] greater than 100 µM and a TGI [3] greater than 100 µM. The TGI [4] was 93.2 µM, the TGI [5] was greater than 100 µM and the TGI [6] was 66.8 µM. It also gave a TGI [55] greater than 100 µM, a TGI [7] greater than 100 µM and a TGI [8] greater than 100 µM. The TGI [9] was greater than 100 µM, the TGI [57] was greater than 100 µM and the TGI [10] was greater than 100 µM. For the same compound, the TGI [11] was greater than 100 µM, the TGI [12] was greater than 100 µM and the TGI [13] was greater than 100 µM. It also gave a TGI [14] greater than 100 µM, a TGI [16] greater than 100 µM and a TGI [17] greater than 100 µM. The TGI [18] was greater than 100 µM, the TGI [19] was greater than 100 µM and the TGI [20] was greater than 100 µM. It also gave a TGI [61] greater than 100 µM, a TGI [22] greater than 100 µM and a TGI [23] greater than 100 µM. It also gave a TGI [24] greater than 100 µM, a TGI [25] greater than 100 µM and a TGI [26] greater than 100 µM. The TGI [27] was greater than 100 µM, the TGI [63] was greater than 100 µM and the TGI [28] was greater than 100 µM. The TGI [29] was greater than 100 µM, the TGI [30] was greater than 100 µM and the TGI [31] was greater than 100 µM. For the same compound, the TGI [32] was greater than 100 µM, the TGI [33] was greater than 100 µM and the TGI [34] was greater than 100 µM. For the same compound, the TGI [35] was greater than 100 µM, the TGI [37] was greater than 100 µM and the TGI [38] was greater than 100 µM. For the same compound, the TGI [39] was greater than 100 µM, the TGI [41] was greater than 100 µM and the TGI [42] was greater than 100 µM. The TGI [43] was greater than 100 µM, the TGI [44] was greater than 100 µM and the TGI [45] was greater than 100 µM. For the same compound, the TGI [46] was 75 µM, the TGI [47] was greater than 100 µM and the TGI [48] was greater than 100 µM. The TGI [52] was greater than 100 µM and the TGI [53] was greater than 100 µM.

Reference: PubChem BioAssay (NCI)
